Reference: patent publication US20080171740A1, “Chemical Compounds” (SMITHKLINE BEECHAM CORPORATION, priority 2004, published 2008)
Like-named read-outs stand apart in the source and are kept apart here.

Key:
Type in all cases: cell-based
[1] = system: HIV-1 gp160 (HXB2 strain) mediated fusion with HOS (hCXCR4/hCCR5/hCD4/pHIV-LTR-luciferase) cells; test: Cell/cell fusion assay (HEK-293 expressing HIV-1 tat, rev, gp160 with HOS hCXCR4/hCCR5/hCD4/pHIV-LTR-luciferase cells); conditions: Homo sapiens, HEK293; luciferase readout after 24 h; read-out: Fusion assay (pIC50) (converted)
Source text: The complete coding sequences of HIV-1 tat (GenBank Accession No. X07861) and rev (GenBank Accession No. M34378) were cloned into pcDNA3.1 expression vectors containing G418 and hygromycin resistance genes, respectively. The complete coding sequence of the HIV-1 (HXB2 strain) gp160 envelope gene (nucleotide bases 6225-8795 of GenBank Accession No. K03455) was cloned into plasmid pCRII-TOPO. The three HIV genes were additionally inserted into the baculovirus shuttle vector, pFastBacMam1, under the transcriptional control of the CMV promoter. A construction of the pHIV-I LTR containing mutated NFkB sequences linked to the luciferase reporter gene was prepared by digesting pcDNA3.1, containing the G418 resistance gene, with Nru I and Bam HI to remove the CMV promoter. LTR-luc was then cloned into the Nru I/Bam HI sites of the plasmid vector. Plasmid preparations were performed after the plasmids were amplified in Escherichia coli strain DH5-alpha. The fidelity of the inserted sequences was confirmed by double-strand nucleotide sequencing using an ABI Prism Model 377 automated sequencer.
Recombinant BacMam baculoviruses were constructed from pFastBacMam shuttle plasmids by using the bacterial cell-based Bac-to-Bac system. Viruses were propagated in Sf9 (Spodoptera frugiperda) cells cultured in Hink's TNM-FH Insect media supplemented with 10% (v/v) fetal bovine serum and 0.1% (v/v) pluronic F-68 according to established protocols.
Human osteosarcoma (HOS) cells that naturally express human CXCR4 were transfected with human CCR5, human CD4 and the pHIV-LTR-luciferase plasmid using FuGENE 6 transfection reagent. Single cells were isolated and grown under selection condition in order to generate a stable HOS (hCXCR4/hCCR5/hCD4/pHIV-LTR-luciferase) clonal cell line. The cells were maintained in Dulbeccos modified Eagles media supplemented with 10% fetal calf serum (FCS), G418 (400 ug/ml), puromycin (1 ug/ml), mycophenolic acid (40 ug/ml), xanthine (250 ug/ml) and hypoxanthine (13.5 ug/ml) to maintain a selection pressure for cells expressing the LTR-luciferase, hCCR5 and hCD4, respectively. Human embryonic kidney (HEK-293) cells stably transfected to express the human macrophage scavenging receptor (Class A, type 1; GenBank Accession No. D90187), were maintained in DMEM/F-12 media (1:1) supplemented with 10% FCS and 1.5 ug/ml puromycin. The expression of this receptor by the HEK-293 cells enhances their ability to stick to tissue culture treated plasticware.
HEK-293 cells were harvested using enzyme-free cell dissociation buffer. The cells were resuspended in DMEM/F-12 media supplemented with 10% FCS and 1.5 ug/ml and counted. Tranductions were performed by direct addition of BacMam baculovirus containing insect cell media to cells. The cells were simultaneously transduced with BacMam baculovirus expressing HIV-1 tat, HIV-1 rev and HIV-1 gp160 (from the HXB2 HIV strain). Routinely an MOI of 10 of each virus was added to the media containing the cells. 2 mM butyric acid was also added to the cells at this stage to increase protein expression in transduced cells. The cells were subsequently mixed and seeded into a flask at 30 million cells per T225. The cells were incubated at 37° C., 5% CO2, 95% humidity for 24 h to allow for protein expression.
HEK and HOS cells were harvested in DMEM/F-12 media containing 2% FCS and DMEM media containing 2% FCS, respectively, with no selection agents added. Compounds were plated as 1 ul spots in 100% DMSO on a 96-well CulturPlate plates. HOS cells (50 ul) were added first to the wells, followed immediately by the HEK cells (50 ul). The final concentration of each cell type was 20,000 cells per well. Following these additions, the cells were returned to a tissue culture incubator (37° C.; 5% CO2/95% air) for an additional 24 h.
Following the 24 h incubation, total cellular luciferase activity was measured using the LucLite Plus assay kit (Packard, Meridien, Conn.). […]

[2] = Compound cytotoxicity in the absence of virus (CellTiter-Glo); conditions: human; non-infected HOS cultures, cell viability; read-out: Cytotox (pIC50) (converted)
Experimental: (§1) Compounds were profiled against two HIV-1 viruses, the M-tropic (CCR5 utilizing) Ba-L strain and the T-tropic (CXCR4 utilizing) IIIB strain. Both viruses were propagated in human peripheral blood lymphocytes. Compounds were tested for there ability to block infection of the HOS cell line (expressing hCXCR4/hCCR5/hCD4/pHIV-LTR-luciferase) by either HIV-1 Ba-L or HIV-1 IIIB. Compound cytotoxicity was also examined in the absence of virus addition.
(§2) HOS cells (expressing hCXCR4/hCCR5/hCD4/pHIV-LTR-luciferase) were harvested and diluted in Dulbeccos modified Eagles media supplemented with 2% FCS and non-essential amino acid to a concentration of 60,000 cells/ml. The cells were plated into 96-well plates (100 ul per well) and the plates were placed in a tissue culture incubator (37° C.; 5% CO2/95% air) for a period of 24 h.
(§3) Subsequently, 50 ul of the desired drug solution (4 times the final concentration) was added to each well and the plates were returned to the tissue culture incubator (37° C.; 5% CO2/95% air) for 1 h. Following this incubation 50 ul of diluted virus was added to each well (approximately 2 million RLU per well of virus). The plates were returned to the tissue culture incubator (37° C.; 5% CO2/95% air) and were incubated for a further 96 h.
(§4) Following this incubation the endpoint for the virally infected cultures was quantified following addition of Steady-Glo Luciferase assay system reagent (Promega, Madison, Wis.). Cell viability or non-infected cultures was measured using a CellTiter-Glo luminescent cell viability assay system (Promega, Madison, Wis.). All luminescent readouts are performed on a Topcount luminescence detector (Packard, Meridien, Conn.).

[3] = target: T1, CXCR4 receptor (Homo sapiens, UniProt P61073); test: Functional FLIPR assay (block of SDF-1 alpha induced [Ca2+]i change); conditions: HEK-293 cells with human CXCR4 BacMam and Gqi5 BacMam; antagonism of SDF-1 alpha; read-out: Functional assay (pIC50) (converted)
T1 construct: expressed in transfected cells; host or cells: HEK-293 cells (stably expressing human macrophage scavenging receptor) transduced with human CXCR4 BacMam and Gqi5 BacMam
T1 sequence (P61073 whole entry): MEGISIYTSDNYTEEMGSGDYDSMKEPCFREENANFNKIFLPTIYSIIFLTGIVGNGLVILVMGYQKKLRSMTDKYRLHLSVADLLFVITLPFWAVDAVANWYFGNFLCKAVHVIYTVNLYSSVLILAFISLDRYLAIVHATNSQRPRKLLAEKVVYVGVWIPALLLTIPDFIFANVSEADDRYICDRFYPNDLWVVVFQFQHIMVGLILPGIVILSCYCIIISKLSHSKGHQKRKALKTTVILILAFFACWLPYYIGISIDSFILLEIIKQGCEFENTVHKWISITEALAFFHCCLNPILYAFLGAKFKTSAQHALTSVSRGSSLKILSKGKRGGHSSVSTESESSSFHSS
Experimental: Human embryonic kidney (HEK-293) cells were maintained and harvested as described above. Cells were plated in 96-well, black clear bottom, poly-lysine coated plates at a concentration of 40,000 cells per well in a final volume of 100 ul containing human CXCR4 BacMam (MOI=25) and Gqi5 BacMam (MOI=12.5). The cells were incubated at 37° C., 5% CO2, 95% humidity for 24 h to allow for protein expression.
After the required incubation time the cells were washed once with 50 ul of fresh serum-free DMEM/F12 media containing probenicid. 50 ul of dye solution was then added to the cells (Calcium Plus Assay Kit Dye; Molecular Devices) was dissolved in 200 ml of the above probenicid/BSA containing media and incubated for 1 h. Cell plates were transferred to a Fluorometric Imaging Plate Reader (FLIPR). Upon addition the effect of the compounds on the change in [Ca^2+]i was examined to determine if the compounds were agonists or antagonists (ability to block SDF-1 alpha activity) at the CXCR4 receptor. IC50 values are determined and pKb values are calculated using the Leff and Dougall equation: KB=IC50/((2+([agonist]/EC50̂b)̂1/b -1) Where IC50 is that defined by the antagonist concentration-response curve [agonist] is the EC80 concentration of agonist used EC50 is that defined by the agonist concentration-response curve b is the slope of the agonist concentration-response curve.

[4] = system: HIV-1 IIIB strain, T-tropic (CXCR4 utilizing); test: HOS HIV-1 infectivity assay
Experimental: as §1, §2, §3, §4

[5] = Human immunodeficiency virus 1, IIIB, HOS HIV anti-infectivity assay, strain not named in Table 2, read-out: Activity Level
[6] = Human immunodeficiency virus 1, HOS cells, HIV-1 IIIB, 96 h, luciferase, read-out: HOS (3B)

Row | IC50 [4, 5] [nM] | Structure (SMILES) | also measured
1 | 500 to 10000 | NCCN(Cc1cn2ccccc2n1)C1CCCc2cccnc21 (centres unmarked) [Example 42, N-(Imidazo[1,2-a]pyridin-2-ylmethyl)-N-(5,6,7,8-tetrahydroquinolin-8-yl)ethane-1,2-diamine] | 
2 | < 100 | CN1CCN(c2cccc3nc(CN(Cc4ccncc4)[C@H]4CCCc5cccnc54)c(CO)n23)CC1 [Example 36, [5-(4-Methyl-1-piperazinyl)-2-({(4-pyridinylmethyl)[(8S)-5,6,7,8-tetrahydro-8-quinolinyl]amino}methyl)imidazo[1,2-a]pyridin-3-yl]methanol] | 
3 | < 100 | CN1CCN(c2cccc3nc(CN(Cc4ccccn4)[C@H]4CCCc5cccnc54)c(CO)n23)CC1 [Example 34, [5-(4-Methyl-1-piperazinyl)-2-({(2-pyridinylmethyl)[(8S)-5,6,7,8-tetrahydro-8-quinolinyl]amino}methyl)imidazo[1,2-a]pyridin-3-yl]methanol] | 
4 | < 100 | CN1CCN(c2cccc3nc(CN(Cc4ccncc4)[C@H]4CCCc5cccnc54)cn23)CC1 [Example 32, (8S)-N-{[5-(4-Methyl-1-piperazinyl)imidazo[1,2-a]pyridin-2-yl]methyl}-N-(4-pyridinylmethyl)-5,6,7,8-tetrahydro-8-quinolinamine] | 
5 | < 100 | CN1CCN(c2cccc3nc(CN(Cc4cccnc4)[C@H]4CCCc5cccnc54)cn23)CC1 [Example 31, (8S)-N-{[5-(4-Methyl-1-piperazinyl)imidazo[1,2-a]pyridin-2-yl]methyl}-N-(3-pyridinylmethyl)-5,6,7,8-tetrahydro-8-quinolinamine] | 
6 | < 100 | CN1CCN(c2cccc3nc(CN(Cc4ccccc4N(C)C)[C@H]4CCCc5cccnc54)cn23)CC1 [Example 29, (8S)-N-{[2-(Dimethylamino)phenyl]methyl}-N-{[5-(4-methyl-1-piperazinyl)imidazo[1,2-a]pyridin-2-yl]methyl}-5,6,7,8-tetrahydro-8-quinolinamine] | 
7 | 100 to 500 | CN1CCN(c2cccc3nc(CN(Cc4ccccn4)[C@H]4CCCc5cccnc54)cn23)CC1 [Example 30, (8S)-N-{[5-(4-Methyl-1-piperazinyl)imidazo[1,2-a]pyridin-2-yl]methyl}-N-(2-pyridinylmethyl)-5,6,7,8-tetrahydro-8-quinolinamine] | 
8 | 500 to 10000 | NCCCN(Cc1cn2ccccc2n1)C1CCCc2cccnc21 (centres unmarked) [Example 44, N-(Imidazo[1,2-a]pyridin-2-ylmethyl)-N-(5,6,7,8-tetrahydro-8-quinolinyl)-1,3-propanediamine] | 
9 | 100 to 500 | NCCCCCN(Cc1cn2ccccc2n1)C1CCCc2cccnc21 (centres unmarked) [Example 43, N-(Imidazo[1,2-a]pyridin-2-ylmethyl)-N-(5,6,7,8-tetrahydro-8-quinolinyl)-1,5-pentanediamine] | 
10 | < 100 | NCCCCN(Cc1nc2ccccn2c1Br)C1CCCc2cccnc21 (centres unmarked) [Example 46, N-[(3-Bromoimidazo[1,2-a]pyridin-2-yl)methyl]-N-(5,6,7,8-tetrahydro-8-quinolinyl)-1,4-butanediamine] | 
11 | 100 to 500 | NC1CCC(N(Cc2cn3ccccc3n2)C2CCCc3cccnc32)CC1 (centres unmarked) [Example 37, N-(Imidazo[1,2-a]pyridin-2-ylmethyl)-N-(5,6,7,8-tetrahydro-8-quinolinyl)-1,4-cyclohexanediamine] | 
12 | < 100 | NCCCCN(Cc1nc2ccccn2c1Cl)C1CCCc2cccnc21 (centres unmarked) [Example 45, N-[(3-Chloroimidazo[1,2-a]pyridin-2-yl)methyl]-N-(5,6,7,8-tetrahydro-8-quinolinyl)-1,4-butanediamine] | 
13 | < 100 | CN1CCN(c2cccc3nc(CN(Cc4cccnc4)[C@H]4CCCc5cccnc54)c(CO)n23)CC1 [Example 35, [5-(4-Methyl-1-piperazinyl)-2-({(3-pyridinylmethyl)[(8S)-5,6,7,8-tetrahydro-8-quinolinyl]amino}methyl)imidazo[1,2-a]pyridin-3-yl]methanol] | 

Row | Structure (SMILES) | IC50 [4, 5] [nM] | also measured
14 | Cc1ccc2nc(CN(CCCCN)C3CCCc4cccnc43)cn2c1 (centres unmarked) [Example 4, N-[(6-Methylimidazo[1,2-a]pyridin-2-yl)methyl]-N-(5,6,7,8-tetrahydro-8-quinolinyl)-1,4-butanediamine] | < 100 | IC50 [1]: 97.7 nM; IC50 at 96 h [2]: > 100000 nM; IC50 [3]: 52.5 nM; IC50 [4, 6]: 57 nM
15 | Cc1cccc2nc(CN(CCCCN)C3CCCc4cccnc43)cn12 (centres unmarked) [Example 5, N-[(5-Methylimidazo[1,2-a]pyridin-2-yl)methyl]-N-(5,6,7,8-tetrahydro-8-quinolinyl)-1,4-butanediamine] | < 100 | IC50 [1]: 39.8 nM; IC50 at 96 h [2]: > 100000 nM; IC50 [3]: 12 nM; IC50 [4, 6]: 17 nM
